Reference: paper PMC5355322, “Enhancement of the bioavailability of a novel anticancer compound (acetyltanshinone IIA) by encapsulation within mPEG-PLGA nanoparticles: a study of formulation optimization, toxicity, and pharmacokinetics” (Oncotarget, 2017)
Where two headings read alike, the source gives them in different places.

Tests used:
Drug release by dialysis = type: physicochemical; details: after 22 h, water with 1% SDS, 37°C
Method: The release of ATA from ATA NPs was investigated using dialysis and compared with the release of free ATA in solution [38–41]. Free ATA, or ATA NPs containing an equal amount of ATA, was mixed with release medium (6 mL ultra-pure water with 1% SDS) and placed in a dialysis sack (MWCO 12,000, Sigma). The pocket was then immersed in release medium (50 mL) with gentle stirring at 37°C. Samples of medium from outside of the pocket (2 mL) were taken at the designated time intervals for analysis, and an equal volume of fresh release medium was replenished. The amount of released drug was determined by the RP-HPLC method described in the section “Pharmacokinetics of ATA NPs in rats” below. The similarity of release profiles between the free ATA and ATA NPs were evaluated by the similarity factor (f2) shown below: f2=50log {[1+1/n∑t=1n(Rt−Tt)^2]^−0.5×100}
where n is the number of the time points, Rt is the release value of ATA NPs at time t, and Tt is the release value of free ATA.

[1] = test system: MCF-7 breast cancer cells; test: MTT cell viability assay, MCF-7; type: cell-based; details: for reduction of viability of MCF-7 cells: 10 μM and 20 μM; for IC50: Homo sapiens, MCF7
Method: (§1) Meanwhile, human umbilical vein endothelial cells (HUVEC) were used to determine the general toxicity of ATA NPs on non-cancerous cells. Cells were treated with free ATA or ATA NPs at six concentrations: 0.625, 1.25, 2.5, 5, 10, and 20 μM for 24, 48, and 72 h. Cell viability was determined by the MTT assay and the experiment was conducted in triplicate.
(§2) The MTT reduction ability was determined as an index of the metabolic viability, in particular mitochondrial function, of the cells. Briefly, MCF-7 cells or HUVEC were seeded in 96-well plates and allowed to grow overnight. Free ATA (dissolved in DMSO, diluted with DMEM), ATA NPs, or blank NPs were added at different concentrations and the cells were incubated for 24, 48, and 72 h. MTT solution (10 μL; 5 mg/mL) was added into each well for 4 h. One hundred microliters of 1% SDS (containing 0.1% concentrated hydrochloric acid) was then added in each well to dissolve the formazan crystals. After 8 h, the absorbance of solubilized MTT formazan products were measured at 595 nm, and the cell viability was calculated from the OD value of the test sample and the vehicle control (untreated cells) using the following equation: cell viability (%) = ODtest sample /ODvehicle control × 100. The data obtained in triplicate from three independent experiments were presented as the mean ± SD.

[2] = test system: human umbilical vein endothelial cells (HUVEC); test: MTT cell viability assay, HUVEC; type: cell-based; details: for IC50: Homo sapiens, HUVEC
Method: as §1, §2

zebrafish larvae = test: Heart rate of zebrafish larvae; type: in vivo; details: 5 μM, 96 hpf; normal fish larvae 160 bpm
[3] = Pharmacokinetics in rats after single intravenous administration (RP-HPLC); type: in vivo, rat; details: for half-life: rat, whole blood, 8 mg/kg
Method: The pharmacokinetic parameters of ATA were determined using two-chamber model and calculated using Excel PKsolver. According to the requirements for the selection of pharmacokinetic calculation model, the values of Akaike's information criterion and residual sum of squares (Re) were minimized, while the value of the determinate coefficient (r) was maximized. The mean retention time was calculated by statistical moment analysis.
Free ATA was suspended in a solution of PEG300: Ethanol: Tween 80 (60:25:15, v:v:v). […] At different time points (15 min, 30 min, 1, 2, 3, 4, 5, 6, 8, and 24 h), blood samples (0.3 mL) were collected from the suborbital vein and put into heparinized tubes. The blood samples were centrifuged at 3,000 rpm at 4°C for 10 min to obtain plasma. Then, the samples were pretreated and injected into RP-HPLC for detection. Microsoft Excel PKSolver was used to analyze the pharmacokinetic data. All animal studies were done in accordance with the protocol of ARF SBS NIE A-0146 AZ approved by the Institutional Animal Care and Use Committee, Nanyang Technological University, Singapore.
Before the samples were injected into the chromatograph, they were subjected to protein denaturation and precipitation. Briefly, acetonitrile (700 μL) was added to each 300 μL sample to precipitate the proteins and extract ATA. Samples were vortex mixed for 15 min and then centrifuged for 10 min at 14,000 rpm at 4°C. The deproteinized supernatant was recovered and analyzed immediately by RP-HPLC.
The concentration of ATA in plasma or whole blood was measured by RP-HPLC analysis as described above. The standard stock solution of ATA was added into the plasma or blood at different concentrations and subjected to sample pretreatment. The calibration graphs were based on linear regression analysis of the peak-area of ATA versus the concentration of ATA [32–36]. The extraction recoveries of ATA from rat plasma were determined at the concentrations of 0.0005, 0.01, and 50 μg/mL and from rat blood at the concentrations of 0.1, 5, and 100 μg/mL, using five replicates. The precision and accuracy of the method were examined at three concentrations of samples. The intra-day precisions were evaluated by analyzing five replicate samples in one day. The analysis was performed on five consecutive days for the inter-day precision.

ER+ breast cancer cells = details: compared with tamoxifen; ref [23]; cited from earlier work
ER [4] = details: ref [23]; cited from earlier work
ER [5] = details: ref [23]; cited from earlier work; remark: listed apart in the source
GREB1 = details: ref [23]; cited from earlier work
[6] = design: method as in our previous study in rats; details: rats; ref our previous study in rats; cited from earlier work
[7] = rat whole blood, single i.v. 8 mg/kg
[8] = rat whole blood, single i.v. 8 mg/kg, two-chamber model

## CC(=O)Oc1c(OC(C)=O)c2c(C)coc2c2ccc3c(c12)CCCC3(C)C [Free ATA, acetyltanshinone IIA]
Drug release by dialysis
  ATA released: 50%
[1]; 48 and 72 h
  reduction of viability of MCF-7 cells: ~100%
[1]; 24 h
  reduction of viability of MCF-7 cells: approximately 90%
[1]; MCF-7, 24 h
  IC50: 2620 nM
[1]; MCF-7, 48 h
  IC50: 1720 nM
[1]; MCF-7, 72 h
  IC50: 1060 nM
[2]; 24 h, HUVEC vs MCF-7
  24 h-IC50 in HUVEC cells relative to MCF-7 cells: 7.4 fold
[2]; 24 h
  IC50: 19300 nM
[2]; 48 h
  IC50: 6670 nM
[2]; 72 h
  IC50: 2050 nM
Zebrafish larvae
  heartbeats: 120 bpm
[3]; female, SD, iv, rat whole blood, single i.v. 8 mg/kg, statistical moment analysis, read-out: MRT (mean retention time) (converted)
  MRT: 15.9 min
[3]; female, SD, iv, rat whole blood, single i.v. 8 mg/kg, two-chamber model
  AUC(0-inf): 0.514 µM·h
[3]; female, SD, iv, rat whole blood, single i.v. 8 mg/kg, two-chamber model, read-out: AUC0-24h (converted)
  AUC(0-t): 0.509 µM·h
[3]; female, SD, iv, rat whole blood, single i.v. 8 mg/kg, two-chamber model, read-out: C0 (initial concentration)
  C0: 4.06 µM
[3]; female, SD, iv, rat whole blood, single i.v. 8 mg/kg, two-chamber model, read-out: t1/2 alpha (distribution half-life)
  half-life: 3.55 min
[3]; female, SD, iv, rat whole blood, single i.v. 8 mg/kg, two-chamber model, read-out: t1/2 beta (elimination half-life)
  half-life: 22.8 min
[3]; rat plasma, i.v. 8 mg/kg, both forms
  ATA concentration in plasma: too low to be detected after 15 min
[3]; rat whole blood, i.v. 8 mg/kg
  time until the blood concentration of ATA was reduced to 0.5 μM: 12 min
[3]; rat whole blood, i.v. 8 mg/kg, 240-min test
  decline of blood ATA concentration: declined rapidly, and reached a very low level after 30 min
[3]; [7]
  AUMC (area under the first moment curve): 490.97 μM·min^2
  Vss (steady state volume of distribution): 4.12 mg/kg/µM
[3]; [8]
  CL2 (clearance between central and peripheral compartment): 0.10 (mg/kg)/μM/min
  CL (clearance): 0.26 (mg/kg)/μM/min
  V2 (compartment volume of distribution): 2.15 (mg/kg)/μM
  V (apparent volume of distribution): 1.97 (mg/kg)/μM
  k10 (elimination rate): 0.13 min⁻¹
  k12 (inter-compartment rate): 0.05 min⁻¹
  k21 (intra-compartment rate): 0.05 min⁻¹
Zebrafish embryos; 2.5 μM, 96 hpf
  Deformity and mortality rate (%) (total): 40%
Zebrafish embryos; 5 μM, 96 hpf
  Mortality rate (%): 70%
Zebrafish embryos; 10 μM, 96 hpf
  Mortality rate (%): 100%
Zebrafish embryos; 20 μM, 96 hpf
  Mortality rate (%): 100%
Zebrafish embryos; 96 hpf
  dosages that caused deformity or mortality in zebrafish larvae: higher than 1 μM
Zebrafish embryos; zebrafish, in vivo
  Deformity rate (%): 20%
ER+ breast cancer cells
  growth inhibition of ER+ breast cancer cells: stronger growth inhibition of ER+ breast cancer cells than tamoxifen
ER [4]
  effect on ER protein: completely abolished the presence of ER
ER [5]
  expression of ER at the mRNA level: reduced the expression of ER at the mRNA level
GREB1
  transcription of ER-responsive gene GREB1: reduced the transcription
[6]
  bioavailability: low bioavailability

## C[C@]12CC[C@@H]3c4ccc(O)cc4C[C@@H](CCCCCCCCC[S+]([O-])CCCC(F)(F)C(F)(F)F)[C@H]3[C@@H]1CC[C@@H]2O (some centres unmarked) [fulvestrant, reference compound]
ER [4]
  effect on ER protein: only reduced the protein level
